Results published in patent publication US7759331B2, “Pyridine-containing macroheterococylic compounds as kinase inhibitors” (Janssen Pharmaceutica NV, priority 2006, dated 2010).

Columns and labels:
Experiment in all cases: Protein kinase selectivity panel
Details in all cases: 1.0 μM compound, 10 μM ATP
p70S6K(h) = assay type: biochemical, human
Experimental: Protein kinase selectivity assays were performed as described in the scientific literature (Davies, S. P., et al., Biochem. J. 2000, 351, 95-105). Briefly, protein kinases were assayed for their ability to phosphorylate the appropriate peptide/protein substrates in the presence of 1.0 μM compound. Assays were done using 10 μM ATP and were linear with respect to time. The protein kinase selectivity assays were performed by Upstate Cell Signaling Solutions using Upstate's KinaseProfiler™ Selectivity Screening Service.

Blk(m) = Blk(m) (Mus musculus, UniProt P16277); assay type: biochemical
Procedure, shortened: (§1)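 Read-out is phosphorylation of the kinase's appropriate peptide/protein substrate, with and without 1.0 μM test compound. Assays used 10 μM ATP.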

CHK1(h) = biological target: T1, CHK1(h) (Homo sapiens, UniProt O14757); assay type: biochemical
T1 sequence (O14757 1-476): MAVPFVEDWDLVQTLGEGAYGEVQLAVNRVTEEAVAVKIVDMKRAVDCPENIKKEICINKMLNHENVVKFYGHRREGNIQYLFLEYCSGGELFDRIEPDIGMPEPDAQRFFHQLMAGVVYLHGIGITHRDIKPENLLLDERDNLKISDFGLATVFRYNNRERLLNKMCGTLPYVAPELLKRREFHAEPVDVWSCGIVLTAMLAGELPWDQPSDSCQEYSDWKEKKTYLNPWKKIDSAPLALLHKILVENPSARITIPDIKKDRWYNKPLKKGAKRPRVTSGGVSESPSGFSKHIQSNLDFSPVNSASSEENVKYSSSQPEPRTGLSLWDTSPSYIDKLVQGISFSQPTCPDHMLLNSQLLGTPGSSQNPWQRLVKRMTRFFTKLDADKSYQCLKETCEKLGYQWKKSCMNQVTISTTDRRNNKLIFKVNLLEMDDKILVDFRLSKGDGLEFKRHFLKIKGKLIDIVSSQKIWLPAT
Procedure, shortened: as §1

CK1δ(h) = CK1δ(h) (Homo sapiens, UniProt P48730); assay type: biochemical
Procedure, shortened: as §1

CK2(h) = CK2(h) (Homo sapiens, UniProt P68400); assay type: biochemical
Procedure, shortened: as §1

CaMKIV(h) = biological target: T2, CaMKIV(h) (Homo sapiens, UniProt Q16566); assay type: biochemical
T2 sequence (Q16566 1-473): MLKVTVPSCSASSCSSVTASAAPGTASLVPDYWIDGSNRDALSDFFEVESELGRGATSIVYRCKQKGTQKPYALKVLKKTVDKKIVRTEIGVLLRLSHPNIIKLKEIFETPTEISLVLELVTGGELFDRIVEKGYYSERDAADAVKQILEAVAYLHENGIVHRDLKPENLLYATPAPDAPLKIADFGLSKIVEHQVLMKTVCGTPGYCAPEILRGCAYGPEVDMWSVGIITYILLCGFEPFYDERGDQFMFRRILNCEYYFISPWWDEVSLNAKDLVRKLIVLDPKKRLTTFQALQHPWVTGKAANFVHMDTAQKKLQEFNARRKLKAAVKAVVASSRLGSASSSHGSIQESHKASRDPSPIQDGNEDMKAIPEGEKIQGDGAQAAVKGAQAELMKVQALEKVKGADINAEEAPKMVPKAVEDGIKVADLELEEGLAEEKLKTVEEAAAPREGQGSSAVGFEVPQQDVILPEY
Procedure, shortened: as §1

Fyn(h) = Fyn(h) (Homo sapiens, UniProt P06241); assay type: biochemical
Procedure, shortened: as §1

IR(h) = IR(h) (Homo sapiens, UniProt P06213); assay type: biochemical
Procedure, shortened: as §1

Lck(h) = Lck(h) (Homo sapiens, UniProt P06239); assay type: biochemical
Procedure, shortened: as §1

MKK7β(h) = biological target: T3, MKK7β(h) (Homo sapiens, UniProt O14733); assay type: biochemical
T3 sequence (O14733 1-419): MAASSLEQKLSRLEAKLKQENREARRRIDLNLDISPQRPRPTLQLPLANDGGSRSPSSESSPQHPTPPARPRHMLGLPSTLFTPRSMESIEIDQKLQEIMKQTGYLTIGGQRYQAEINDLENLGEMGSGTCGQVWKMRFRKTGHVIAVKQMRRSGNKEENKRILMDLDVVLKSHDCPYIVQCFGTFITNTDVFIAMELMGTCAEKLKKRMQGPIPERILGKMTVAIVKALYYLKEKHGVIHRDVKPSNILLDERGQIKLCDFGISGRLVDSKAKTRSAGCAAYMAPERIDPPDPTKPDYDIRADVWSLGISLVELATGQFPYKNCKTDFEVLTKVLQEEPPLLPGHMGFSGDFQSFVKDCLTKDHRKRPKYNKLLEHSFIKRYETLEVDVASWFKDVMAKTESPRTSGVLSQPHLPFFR
Procedure, shortened: as §1

PAR-1Bα(h) = PAR-1Bα(h) (Homo sapiens, UniProt Q7KZI7); assay type: biochemical
Procedure, shortened: as §1

PKBβ(h) = PKBβ(h) (Homo sapiens, UniProt P31751); assay type: biochemical
Procedure, shortened: as §1

PKBγ(h) = PKBγ(h) (Homo sapiens, UniProt Q9Y243); assay type: biochemical
Procedure, shortened: as §1

SAPK2a(h) = SAPK2a(h) (Homo sapiens, UniProt Q16539); assay type: biochemical
Procedure, shortened: as §1

Chain of PKBγ(h) (Q9Y243 whole entry): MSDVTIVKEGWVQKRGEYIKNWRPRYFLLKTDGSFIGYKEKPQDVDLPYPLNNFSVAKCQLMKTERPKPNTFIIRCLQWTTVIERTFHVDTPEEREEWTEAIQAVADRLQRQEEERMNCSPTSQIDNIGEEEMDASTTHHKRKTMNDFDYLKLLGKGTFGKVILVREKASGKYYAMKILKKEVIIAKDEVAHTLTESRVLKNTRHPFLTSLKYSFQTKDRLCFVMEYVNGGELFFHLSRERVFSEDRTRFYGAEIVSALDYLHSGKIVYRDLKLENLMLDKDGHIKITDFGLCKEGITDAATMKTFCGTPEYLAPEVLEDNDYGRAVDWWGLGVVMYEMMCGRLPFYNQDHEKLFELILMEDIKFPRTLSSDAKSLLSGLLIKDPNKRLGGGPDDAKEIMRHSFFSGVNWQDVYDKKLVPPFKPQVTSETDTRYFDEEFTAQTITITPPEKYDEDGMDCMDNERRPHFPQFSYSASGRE
Chain of CK1δ(h) (P48730 whole entry): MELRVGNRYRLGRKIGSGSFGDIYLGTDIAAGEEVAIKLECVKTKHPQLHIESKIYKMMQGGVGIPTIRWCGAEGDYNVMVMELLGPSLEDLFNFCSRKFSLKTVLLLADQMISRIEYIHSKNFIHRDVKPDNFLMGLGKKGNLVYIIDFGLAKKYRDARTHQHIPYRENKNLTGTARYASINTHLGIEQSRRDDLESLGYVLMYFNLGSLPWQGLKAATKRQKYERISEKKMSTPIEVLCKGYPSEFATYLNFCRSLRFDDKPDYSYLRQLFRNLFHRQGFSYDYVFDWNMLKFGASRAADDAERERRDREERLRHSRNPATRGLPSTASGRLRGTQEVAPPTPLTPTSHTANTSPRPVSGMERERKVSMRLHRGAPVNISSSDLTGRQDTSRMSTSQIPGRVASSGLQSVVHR
Chain of PAR-1Bα(h) (Q7KZI7 1-725 isoform Q7KZI7-4): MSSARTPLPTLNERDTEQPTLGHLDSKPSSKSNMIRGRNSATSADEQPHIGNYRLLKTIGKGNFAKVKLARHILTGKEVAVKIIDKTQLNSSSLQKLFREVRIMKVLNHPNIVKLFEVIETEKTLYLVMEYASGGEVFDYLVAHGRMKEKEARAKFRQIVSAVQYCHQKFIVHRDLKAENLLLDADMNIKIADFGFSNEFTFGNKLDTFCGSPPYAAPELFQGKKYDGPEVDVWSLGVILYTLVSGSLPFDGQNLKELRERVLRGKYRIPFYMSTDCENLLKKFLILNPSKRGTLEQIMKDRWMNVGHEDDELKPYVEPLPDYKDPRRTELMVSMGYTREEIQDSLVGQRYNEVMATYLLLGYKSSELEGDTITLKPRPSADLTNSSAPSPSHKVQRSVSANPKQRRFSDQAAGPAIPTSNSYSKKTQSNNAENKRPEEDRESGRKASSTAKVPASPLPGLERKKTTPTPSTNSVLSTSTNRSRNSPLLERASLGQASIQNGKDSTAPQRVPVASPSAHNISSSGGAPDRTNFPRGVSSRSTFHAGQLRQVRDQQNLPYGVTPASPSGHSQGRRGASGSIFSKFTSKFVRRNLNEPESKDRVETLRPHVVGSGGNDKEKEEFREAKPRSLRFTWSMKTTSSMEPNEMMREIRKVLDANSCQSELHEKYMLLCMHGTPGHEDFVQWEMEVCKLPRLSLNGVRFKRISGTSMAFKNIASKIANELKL
Chain of PKBβ(h) (P31751 whole entry): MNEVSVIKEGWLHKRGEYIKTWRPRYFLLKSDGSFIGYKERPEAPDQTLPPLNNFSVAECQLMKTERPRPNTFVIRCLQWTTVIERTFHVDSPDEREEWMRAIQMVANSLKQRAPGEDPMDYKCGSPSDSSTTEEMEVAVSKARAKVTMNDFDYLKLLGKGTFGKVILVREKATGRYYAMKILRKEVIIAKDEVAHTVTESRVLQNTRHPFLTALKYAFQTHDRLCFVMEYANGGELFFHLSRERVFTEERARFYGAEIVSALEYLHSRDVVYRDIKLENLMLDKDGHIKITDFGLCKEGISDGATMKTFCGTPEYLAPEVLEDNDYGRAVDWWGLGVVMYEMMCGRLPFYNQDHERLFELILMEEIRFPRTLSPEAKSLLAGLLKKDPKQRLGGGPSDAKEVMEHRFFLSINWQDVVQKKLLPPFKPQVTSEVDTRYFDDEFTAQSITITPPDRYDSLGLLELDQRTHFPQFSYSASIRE
Chain of SAPK2a(h) (Q16539 whole entry): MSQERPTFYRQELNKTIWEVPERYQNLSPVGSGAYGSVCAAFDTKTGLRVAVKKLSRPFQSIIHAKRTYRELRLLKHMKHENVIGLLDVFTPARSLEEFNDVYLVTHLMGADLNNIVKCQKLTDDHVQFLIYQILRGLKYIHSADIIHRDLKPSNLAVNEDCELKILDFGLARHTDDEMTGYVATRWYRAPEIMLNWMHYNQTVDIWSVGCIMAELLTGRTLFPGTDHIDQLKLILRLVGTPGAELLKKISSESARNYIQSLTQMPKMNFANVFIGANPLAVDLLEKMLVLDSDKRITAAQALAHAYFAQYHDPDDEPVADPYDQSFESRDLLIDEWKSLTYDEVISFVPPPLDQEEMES
Chain of Lck(h) (P06239 whole entry): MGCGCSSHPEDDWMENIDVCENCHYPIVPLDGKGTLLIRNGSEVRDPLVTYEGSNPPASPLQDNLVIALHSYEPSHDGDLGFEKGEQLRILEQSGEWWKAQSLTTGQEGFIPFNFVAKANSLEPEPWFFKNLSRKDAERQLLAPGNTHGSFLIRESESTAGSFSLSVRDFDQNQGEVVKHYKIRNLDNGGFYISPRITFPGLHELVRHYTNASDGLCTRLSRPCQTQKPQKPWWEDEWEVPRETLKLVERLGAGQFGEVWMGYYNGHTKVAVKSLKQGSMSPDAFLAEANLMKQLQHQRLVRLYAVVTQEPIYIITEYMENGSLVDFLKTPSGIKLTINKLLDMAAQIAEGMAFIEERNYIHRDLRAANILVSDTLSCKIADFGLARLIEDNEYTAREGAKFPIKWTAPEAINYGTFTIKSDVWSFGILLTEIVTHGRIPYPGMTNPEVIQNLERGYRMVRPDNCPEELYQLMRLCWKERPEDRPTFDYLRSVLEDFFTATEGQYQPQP
Chain of Blk(m) (P16277 whole entry): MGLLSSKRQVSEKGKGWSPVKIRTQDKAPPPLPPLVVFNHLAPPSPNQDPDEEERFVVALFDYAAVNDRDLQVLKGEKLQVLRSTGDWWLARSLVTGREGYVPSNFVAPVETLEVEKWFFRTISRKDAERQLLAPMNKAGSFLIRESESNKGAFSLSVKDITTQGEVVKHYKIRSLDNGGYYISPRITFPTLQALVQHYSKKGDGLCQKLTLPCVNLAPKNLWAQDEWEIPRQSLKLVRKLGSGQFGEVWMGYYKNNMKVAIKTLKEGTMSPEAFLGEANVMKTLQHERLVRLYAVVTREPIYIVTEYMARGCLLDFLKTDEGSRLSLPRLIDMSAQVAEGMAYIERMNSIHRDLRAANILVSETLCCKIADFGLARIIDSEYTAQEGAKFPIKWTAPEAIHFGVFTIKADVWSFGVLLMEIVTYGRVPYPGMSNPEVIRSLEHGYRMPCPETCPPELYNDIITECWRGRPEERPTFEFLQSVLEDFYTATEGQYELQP
Chain of IR(h) (P06213 28-1382): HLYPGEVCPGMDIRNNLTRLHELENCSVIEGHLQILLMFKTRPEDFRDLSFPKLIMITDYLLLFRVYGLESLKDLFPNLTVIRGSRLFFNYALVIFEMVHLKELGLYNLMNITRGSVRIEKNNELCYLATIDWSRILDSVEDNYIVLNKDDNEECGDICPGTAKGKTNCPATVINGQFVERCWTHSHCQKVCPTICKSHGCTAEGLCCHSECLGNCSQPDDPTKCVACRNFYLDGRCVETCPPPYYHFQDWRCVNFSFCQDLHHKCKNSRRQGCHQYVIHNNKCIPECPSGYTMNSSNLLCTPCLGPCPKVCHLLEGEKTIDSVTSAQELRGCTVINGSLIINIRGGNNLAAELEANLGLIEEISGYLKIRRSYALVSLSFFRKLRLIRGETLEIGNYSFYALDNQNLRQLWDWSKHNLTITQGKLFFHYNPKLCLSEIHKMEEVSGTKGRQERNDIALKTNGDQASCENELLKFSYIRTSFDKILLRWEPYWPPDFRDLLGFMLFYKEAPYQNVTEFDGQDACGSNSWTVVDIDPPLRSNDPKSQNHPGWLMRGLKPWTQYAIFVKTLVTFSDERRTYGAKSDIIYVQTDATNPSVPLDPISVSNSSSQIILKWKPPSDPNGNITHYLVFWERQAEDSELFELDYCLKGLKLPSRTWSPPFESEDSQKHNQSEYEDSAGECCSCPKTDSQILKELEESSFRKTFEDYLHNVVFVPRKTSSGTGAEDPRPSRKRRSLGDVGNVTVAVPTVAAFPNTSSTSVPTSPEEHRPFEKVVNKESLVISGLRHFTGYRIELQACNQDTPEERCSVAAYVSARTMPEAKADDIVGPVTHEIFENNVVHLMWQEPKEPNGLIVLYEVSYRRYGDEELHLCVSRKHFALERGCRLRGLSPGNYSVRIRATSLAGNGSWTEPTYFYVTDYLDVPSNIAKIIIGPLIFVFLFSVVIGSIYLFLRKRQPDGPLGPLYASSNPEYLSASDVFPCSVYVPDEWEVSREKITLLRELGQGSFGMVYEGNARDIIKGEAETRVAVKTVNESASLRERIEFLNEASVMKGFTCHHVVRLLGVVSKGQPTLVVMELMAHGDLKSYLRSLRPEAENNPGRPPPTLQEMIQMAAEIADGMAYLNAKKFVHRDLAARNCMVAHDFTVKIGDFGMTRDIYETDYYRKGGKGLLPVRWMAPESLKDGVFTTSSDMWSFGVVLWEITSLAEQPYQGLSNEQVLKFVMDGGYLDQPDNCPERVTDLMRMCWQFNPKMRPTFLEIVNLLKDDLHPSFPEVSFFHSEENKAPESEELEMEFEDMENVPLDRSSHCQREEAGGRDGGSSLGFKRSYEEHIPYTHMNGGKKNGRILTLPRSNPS

With `CN(C)c1nc2ccc1CCCCn1cc(c3ccccc31)C1=C(C(=O)NC1=O)c1cn(c3ccccc13)CCC2` [Cpd 1, 31-(dimethylamino)-5,15,25,32-tetraazaheptacyclo[28.2.2.1^5,12.1^18,25.0^6,11.0^13,17.0^19,24]hexatriaconta-1(32),6,8,10,12(36),13(17),18(35),19,21,23,30,33-dodecaene-14,16-dione] the “Activity at Protein Kinase Assays (% of control), p70S6K(h)” value (from here on “Activity … (% of control), p70S6K(h)”) (p70S6K(h)) was 98 % of control, the “Activity at Protein Kinase Assays (% of control), Blk(m)” value (shortened to “Activity … (% of control), Blk(m)”) (Blk(m)) was 109 % of control and the “Activity at Protein Kinase Assays (% of control), CHK1(h)” value (“Activity … (% of control), CHK1(h)” for short) (CHK1(h)) was 105 % of control. For the same molecule, the “Activity at Protein Kinase Assays (% of control), CK1δ(h)” value (“Activity … (% of control), CK1δ(h)” for short) (CK1δ(h)) was 107 % of control, the “Activity at Protein Kinase Assays (% of control), CK2(h)” value (“Activity … (% of control), CK2(h)” for short) (CK2(h)) was 107 % of control and the “Activity at Protein Kinase Assays (% of control), CaMKIV(h)” value (“Activity … (% of control), CaMKIV(h)” below) (CaMKIV(h)) was 92 % of control. The “Activity at Protein Kinase Assays (% of control), Fyn(h)” value (from here on “Activity … (% of control), Fyn(h)”) (Fyn(h)) was 103 % of control, the “Activity at Protein Kinase Assays (% of control), IR(h)” value (“Activity … (% of control), IR(h)” below) (IR(h)) was 91 % of control and the “Activity at Protein Kinase Assays (% of control), Lck(h)” value (from here on “Activity … (% of control), Lck(h)”) (Lck(h)) was 96 % of control. The “Activity at Protein Kinase Assays (% of control), MKK7β(h)” value (“Activity … (% of control), MKK7β(h)” below) (MKK7β(h)) was 88 % of control, the “Activity at Protein Kinase Assays (% of control), PAR-1Bα(h)” value (“Activity … (% of control), PAR-1Bα(h)” for short) (PAR-1Bα(h)) was 94 % of control and the “Activity at Protein Kinase Assays (% of control), PKBβ(h)” value (“Activity … (% of control), PKBβ(h)” below) (PKBβ(h)) was 86 % of control. For the same molecule, the “Activity at Protein Kinase Assays (% of control), PKBγ(h)” value (“Activity … (% of control), PKBγ(h)” below) (PKBγ(h)) was 93 % of control and the “Activity at Protein Kinase Assays (% of control), SAPK2a(h)” value (“Activity … (% of control), SAPK2a(h)” below) (SAPK2a(h)) was 108 % of control.

In the case of `CN(C)c1cc2cc(n1)CCCn1cc(c3ccccc31)C1=C(C(=O)NC1=O)c1cn(c3ccccc13)CCC2` [Cpd 2, 20-(dimethylamino)-4,14,19,26-tetraazaheptacyclo[24.6.1.1^7,14.1^18,22.0^2,6.0^8,13.0^27,32]pentatriaconta-1(33),2(6),7(35),8,10,12,18(34),19,21,27,29,31-dodecaene-3,5-dione], the “Activity … (% of control), p70S6K(h)” value (p70S6K(h)) is reported as 91 % of control, the “Activity … (% of control), Blk(m)” value (Blk(m)) is reported as 70 % of control and the “Activity … (% of control), CHK1(h)” value (CHK1(h)) is reported as 101 % of control. For the same molecule, the “Activity … (% of control), CK1δ(h)” value (CK1δ(h)) was 111 % of control, the “Activity … (% of control), CK2(h)” value (CK2(h)) was 111 % of control and the “Activity … (% of control), CaMKIV(h)” value (CaMKIV(h)) was 113 % of control. The “Activity … (% of control), Fyn(h)” value (Fyn(h)) was 106 % of control, the “Activity … (% of control), IR(h)” value (IR(h)) was 102 % of control and the “Activity … (% of control), Lck(h)” value (Lck(h)) was 100 % of control. For the same molecule, the “Activity … (% of control), MKK7β(h)” value (MKK7β(h)) was 78 % of control, the “Activity … (% of control), PAR-1Bα(h)” value (PAR-1Bα(h)) was 100 % of control and the “Activity … (% of control), PKBβ(h)” value (PKBβ(h)) was 118 % of control. For the same molecule, the “Activity … (% of control), PKBγ(h)” value (PKBγ(h)) was 106 % of control and the “Activity … (% of control), SAPK2a(h)” value (SAPK2a(h)) was 92 % of control.

In the case of `O=C1NC(=O)C2=C1c1cn(c3ccccc13)CCCc1cc(nc(N3CCCC3)c1)CCCn1cc2c2ccccc21` [Cpd 6, 20-pyrrolidin-1-yl-4,14,19,26-tetraazaheptacyclo[24.6.1.1^7,14.1^18,22.0^2,6.0^8,13.0^27,32]pentatriaconta-1(33),2(6),7(35),8,10,12,18(34),19,21,27,29,31-dodecaene-3,5-dione], the “Activity … (% of control), p70S6K(h)” value (p70S6K(h)) is reported as 95 % of control, the “Activity … (% of control), Blk(m)” value (Blk(m)) is reported as 74 % of control and the “Activity … (% of control), CHK1(h)” value (CHK1(h)) is reported as 110 % of control. The “Activity … (% of control), CK1δ(h)” value (CK1δ(h)) was 112 % of control, the “Activity … (% of control), CK2(h)” value (CK2(h)) was 108 % of control and the “Activity … (% of control), CaMKIV(h)” value (CaMKIV(h)) was 112 % of control. The “Activity … (% of control), Fyn(h)” value (Fyn(h)) was 106 % of control, the “Activity … (% of control), IR(h)” value (IR(h)) was 110 % of control and the “Activity … (% of control), Lck(h)” value (Lck(h)) was 99 % of control. The “Activity … (% of control), MKK7β(h)” value (MKK7β(h)) was 97 % of control, the “Activity … (% of control), PAR-1Bα(h)” value (PAR-1Bα(h)) was 96 % of control and the “Activity … (% of control), PKBβ(h)” value (PKBβ(h)) was 104 % of control. For the same molecule, the “Activity … (% of control), PKBγ(h)” value (PKBγ(h)) was 103 % of control and the “Activity … (% of control), SAPK2a(h)” value (SAPK2a(h)) was 92 % of control.

`O=C1NC(=O)C2=C1c1cn(c3ccccc13)CCCc1ccc(c(N3CCCC3)n1)CCCn1cc2c2ccccc21` [Cpd 7, 31-pyrrolidin-1-yl-5,15,25,30-tetraazaheptacyclo[27.2.2.1^5,12.1^18,25.0^6,11.0^13,17.0^19,24]pentatriaconta-1(31),6,8,10,12(35),13(17),18(34),19,21,23,29,32-dodecaene-14,16-dione] was tested, and the “Activity … (% of control), p70S6K(h)” value (p70S6K(h)) was 84 % of control, the “Activity … (% of control), Blk(m)” value (Blk(m)) was 91 % of control and the “Activity … (% of control), CHK1(h)” value (CHK1(h)) was 106 % of control. For the same molecule, the “Activity … (% of control), CK1δ(h)” value (CK1δ(h)) was 109 % of control, the “Activity … (% of control), CK2(h)” value (CK2(h)) was 113 % of control and the “Activity … (% of control), CaMKIV(h)” value (CaMKIV(h)) was 99 % of control. For the same molecule, the “Activity … (% of control), Fyn(h)” value (Fyn(h)) was 103 % of control, the “Activity … (% of control), IR(h)” value (IR(h)) was 87 % of control and the “Activity … (% of control), Lck(h)” value (Lck(h)) was 90 % of control. For the same molecule, the “Activity … (% of control), MKK7β(h)” value (MKK7β(h)) was 85 % of control, the “Activity … (% of control), PAR-1Bα(h)” value (PAR-1Bα(h)) was 101 % of control and the “Activity … (% of control), PKBβ(h)” value (PKBβ(h)) was 102 % of control. The “Activity … (% of control), PKBγ(h)” value (PKBγ(h)) was 105 % of control and the “Activity … (% of control), SAPK2a(h)” value (SAPK2a(h)) was 93 % of control.
